From patent publication US20260308278A1, “ANTIBODY THAT BINDS TO C3bBb” (Hoffmann-La Roche Inc., priority 2023, published 2026)
pIC50: −log10 of the molar value.

Experiments:
classical pathway = assay: Classical pathway hemolysis assay (Ab-sensitized sheep erythrocytes); type: cell-based, human
Protocol: Everything was prepared at RT except for the serum which was kept on ice so that the complement cascade would not start. Washed Ab-sensitized sheep erythrocytes (EA) were added to a V-shaped 96-well plate together with the dilution series of antibodies in a buffer appropriate for the classical pathway. Normal human serum was added at a final assay concentration of 2% and mixed gently with the other components. Complement activation was started by incubating the plates at 37° C. shaking continuously at 600 rpm to prevent the total sedimentation of the EAs. Hemolysis reaction was stopped after 30 min with the addition of ice-cold NaCl-solution containing 10 mM EDTA. Plates were centrifuged for 2 min at 1000×g at 4° C. to pellet the non-lysed EAs. […] Percentage of hemolysis was calculated: (OD test sample−OD BG or EDTA ctrl)/(OD full lysis−OD BG or EDTA ctrl)×100. IC50 values were calculated using Xlfit.

[1] = test system: C3bBb from Chlorocebus sabaeus; assay: Cross-reactivity hemolysis assay, Chlorocebus sabaeus; type: cell-based, Chlorocebus sabaeus (African Green Monkey); details: RT, 20 min
[2] = test system: C3bBb from Macaca Fascicularis; assay: Cross-reactivity hemolysis assay, Macaca Fascicularis; type: cell-based, Macaca Fascicularis (Cynomolgus); details: 37° C., 20 min
[3] = test system: alternative complement pathway in human serum; assay: Wieslab Complement system Alternative pathway assay; type: biochemical; details: comparative compounds, Table E14
Protocol: This kit is an enzyme immunoassay for the determination of functional alternative complement pathway in human serum.
It combines principles of a hemolytic assay for complement activation with the use of specific antibodies to detect the generated neoantigen, which is proportional to the functional activity of the complement pathway. […] This mixture was diluted 1:18 in a diluent with a specific blocker (so that only AP will be activated) and incubated for another 15 min at RT. Solution was added to a 96-well plate specifically coated with activators of the AP and incubated for 60 min at 37° C. Wells were washed and C5b-9 detected following the protocol.

C3 convertase (C3bBb) = target: T1, C3 convertase (C3bBb) (Homo sapiens, UniProt P00751+P01024); assay: BLI based C3b deposition assay; type: biochemical; details: comparative compounds, Table E14
T1 construct: C3b fragment of complement component C3; from tissue; host or cells: plasma (factor B and factor D)
Protocol: In another experiment, the potency of the antibodies was assessed via a BLI based C3b deposition assay.
BLI based C3b deposition assay: The activated carbonyl group created upon C3 cleavage by the C3 convertase reacts and forms covalent adducts with nucleophiles in close proximity to the enzyme. We utilized this property to measure convertase activity by quantifying the C3b mass deposited on a BLI sensor loaded with C3bBb and exposed to C3.

T1 sequence (P01024 23-667 limits assumed): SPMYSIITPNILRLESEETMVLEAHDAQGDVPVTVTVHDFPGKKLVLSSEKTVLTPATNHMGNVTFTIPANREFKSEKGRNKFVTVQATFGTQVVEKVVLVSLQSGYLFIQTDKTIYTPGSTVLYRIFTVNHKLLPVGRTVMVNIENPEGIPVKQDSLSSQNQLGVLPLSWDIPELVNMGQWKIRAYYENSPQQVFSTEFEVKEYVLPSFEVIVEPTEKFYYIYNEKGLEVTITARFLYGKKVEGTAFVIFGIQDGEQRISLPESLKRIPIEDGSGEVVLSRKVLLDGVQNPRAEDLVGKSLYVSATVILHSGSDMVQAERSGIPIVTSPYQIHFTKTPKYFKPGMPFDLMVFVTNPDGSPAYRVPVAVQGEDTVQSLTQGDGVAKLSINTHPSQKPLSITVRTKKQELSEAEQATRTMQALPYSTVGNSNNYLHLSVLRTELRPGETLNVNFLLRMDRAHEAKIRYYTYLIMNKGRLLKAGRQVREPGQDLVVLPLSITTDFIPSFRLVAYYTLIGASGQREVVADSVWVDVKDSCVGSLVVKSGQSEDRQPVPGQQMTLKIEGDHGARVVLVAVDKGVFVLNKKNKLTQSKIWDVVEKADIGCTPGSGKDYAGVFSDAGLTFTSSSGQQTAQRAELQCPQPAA
T1 sequence (P01024 749-1663 limits assumed): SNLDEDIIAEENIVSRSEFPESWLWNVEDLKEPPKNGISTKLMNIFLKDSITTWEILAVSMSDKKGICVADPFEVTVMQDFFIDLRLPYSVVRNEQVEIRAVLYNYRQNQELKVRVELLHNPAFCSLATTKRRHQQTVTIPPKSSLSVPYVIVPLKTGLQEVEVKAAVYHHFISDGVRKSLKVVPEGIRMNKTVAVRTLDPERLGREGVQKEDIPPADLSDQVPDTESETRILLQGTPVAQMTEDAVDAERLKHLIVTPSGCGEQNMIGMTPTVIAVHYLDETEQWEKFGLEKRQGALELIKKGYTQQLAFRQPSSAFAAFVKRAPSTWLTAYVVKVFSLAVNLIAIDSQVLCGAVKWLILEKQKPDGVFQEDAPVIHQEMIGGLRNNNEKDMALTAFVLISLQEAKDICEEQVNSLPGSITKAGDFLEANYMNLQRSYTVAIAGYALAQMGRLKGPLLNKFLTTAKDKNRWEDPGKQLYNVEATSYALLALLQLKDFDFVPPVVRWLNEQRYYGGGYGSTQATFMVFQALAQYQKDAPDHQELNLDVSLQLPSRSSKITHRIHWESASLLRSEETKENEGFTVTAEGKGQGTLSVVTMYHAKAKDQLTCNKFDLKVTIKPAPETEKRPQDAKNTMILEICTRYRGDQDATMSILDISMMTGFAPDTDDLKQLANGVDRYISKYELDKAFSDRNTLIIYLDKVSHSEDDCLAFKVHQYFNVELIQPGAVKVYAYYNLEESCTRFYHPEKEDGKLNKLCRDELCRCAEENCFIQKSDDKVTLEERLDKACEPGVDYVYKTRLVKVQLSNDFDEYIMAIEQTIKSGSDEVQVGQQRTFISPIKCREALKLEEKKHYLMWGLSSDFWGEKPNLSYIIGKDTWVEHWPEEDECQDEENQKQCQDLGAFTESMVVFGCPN
T1 sequence (P00751 260-764 limits assumed): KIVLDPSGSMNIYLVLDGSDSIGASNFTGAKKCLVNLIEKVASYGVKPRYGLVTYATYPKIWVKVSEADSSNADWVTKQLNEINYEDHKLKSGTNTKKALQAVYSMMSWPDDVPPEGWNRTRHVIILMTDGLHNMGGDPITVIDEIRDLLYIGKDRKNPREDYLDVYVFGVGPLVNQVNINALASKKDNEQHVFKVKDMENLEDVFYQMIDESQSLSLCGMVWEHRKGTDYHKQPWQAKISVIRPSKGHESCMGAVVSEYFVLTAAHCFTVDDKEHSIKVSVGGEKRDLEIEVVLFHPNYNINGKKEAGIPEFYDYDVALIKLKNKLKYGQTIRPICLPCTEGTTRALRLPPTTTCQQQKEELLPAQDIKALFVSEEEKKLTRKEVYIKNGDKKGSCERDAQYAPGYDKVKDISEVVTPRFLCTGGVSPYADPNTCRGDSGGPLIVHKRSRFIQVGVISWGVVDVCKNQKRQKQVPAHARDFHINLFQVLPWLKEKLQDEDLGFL

Molecule	inhibition of the classical pathway (classical pathway)	pIC50 [1]	pIC50 (classical pathway; 2% normal human serum, sheep erythrocytes)	pIC50 [2]	pIC50 [3]	pIC50 (C3 convertase (C3bBb))
CCO[C@H]1CCN(Cc2c(OC)cc(C)c3[nH]ccc23)[C@H](c2ccc(C(=O)O)cc2)C1 [LNP023, Iptacopan]	does not inhibit the classical pathway					
Pegcetacoplan [APL-2]		6.83	5.99	6.50	6.56	6.70
